Measured values published in patent publication US7723370B2, “1, 2-diaryl pyrazoles useful as analgetic and antiinflammatory agents” (Richter Gedeon Vegyeszeti Gyar RT., priority 2005, dated 2010).

Tests used:
Type in all cases: in vivo, rat
[1] = tested on: myocardial ischemia-reperfusion induced injury; experiment: Myocardial ischemia-reperfusion induced injury in rats (cardioprotective effect); conditions: 30 mg/kg i.p. 30 minutes before occlusion; control group 90%
Protocol: Effect of compound of Example 5 and celecoxib was determined in experimental myocardial ischemia-reperfusion induced injury.
Myocardial infarction was produced in male, SPRD CFY rats of 300-360 g by surgical occlusion of left anterior descending coronary artery. Briefly, the animals were anesthetized with pentobarbital (60 mg/kg i.p.) and the chest was opened, the left coronary artery was ligated for 6 minutes followed by reperfusion. Test compounds were administered i.p. in 30 and 60 mg/kg dose 30 minutes before occlusion of the coronary artery. The control group was treated with vehicle (5% TWEEN 80 in isotonic NaCl, […]).

[2] = tested on: carrageenan induced chronic hyperalgesia; experiment: Carrageenan induced chronic hyperalgesia model in rats (Randall-Selitto)
[3] = tested on: carrageenan induced acute hyperalgesia; experiment: Carrageenan induced acute hyperalgesia in rats (Randall-Selitto model)
Protocol: (§1) Oedema (inflammation) was induced by subcutaneous injection of carrageenan (CARR) suspension in the subplantar region of the right hind paw of male Wistar rats, weighted 140-190 g (n=8-12 animal/group). The nociceptive thresholds of the inflamed hind paw after painful mechanical stimuli were measured with analgesimeter (Ugo Basile, type: 37215, Italy). The apparatus is suitable for the measuring of the extent and the latency of the pain reaction threshold of the sensitized paw after painful stimuli. The analgesics elevate the low pain reaction threshold of inflamed paw and the degree of its antinociceptive effect is expressed in reversal %.
(§2) An increasing pressure was applied to the paw and the withdrawal threshold was determined as the first sign (squeaking and/or struggling) of pain response. The pressure threshold was shown in grams. The average value of the hind paw withdrawal obtained with untreated right paw was regarded as the basal hind paw withdrawal (average 80-110 grams.) After determining the baseline threshold the animals received carrageenan injection that produced an intense inflammation associated with hyperalgesia. The mechanical threshold was determined at various times to establish the magnitude and duration of the hyperalgesia. The maximum reduction in threshold was measured 2-3 h after injection (the pain threshold of the inflamed paw is 20-30 g, which was decreased by 65-80% in comparing to the basic value).
(§3) Acute hvneralgesia model: the animals were treated with the test compounds and celecoxib (10 and 30 mg/kg p.o.) one hour after CARR treatment (100 μl 2% suspension). Pain threshold was measured at 2 and 4 hours after the treatment. Chronic hyperalgesia model: extended inflammation and decreased pain threshold were induced with higher dose of CARR. Pain threshold of inflamed paw was measured 24 hours after CARR treatment (150 μl, 2% suspension) then test compound and Celecoxib (30 mg/kg p.o.) were given to the animals. Pain threshold of treated paw was measured from 30 minutes till 3 hours after treatment.
(§4) Control groups in both models after CARR treatment were treated with vehicle p.o. at the same intervals as the test compounds. In both models the analgesic effect of the compounds was expressed in the reversal (%) of the decrease of the pain threshold. Reversal %=[mean of treated groupTxh(g)−treated groupT0h(g)]/[basic mean of treated groupT-1h(g)−treated groupT0h(g)] • T−1 h=mean of the pain threshold of paw before CARR treatment in acute model (g) • T0h=mean of the pain threshold before treatment 1 hour after CARR treatment in acute model (g) • T×h=pain threshold after CARR treatment in the measuring times (1 h, 2 h, 3 h) in acute model (g)

[4] = tested on: carrageenan induced chronic hyperalgesia; experiment: Carrageenan induced chronic hyperalgesia model in rats (Randall-Selitto); conditions: for Analgesic effect (reversal %) after p.o. treatment: chronic model, 30 mg/kg p.o.
Protocol: as §1, §2, §3, §4

[5] = tested on: acetic acid induced chronic gastric ulcer; experiment: Acetic acid induced chronic gastric ulcer in rats
Protocol: In our experiments the method […] of Okabe et al was used. Male Wistar rats of 150-170 g were narcotize part of the stomach.
The test compound was given p.o. on the fifth day after the operation for seven days. The animals were euthanized with ether after 24 hours of the last dose and the abdomen was macroscopically examined (exravasation, accretion), the stomach was excised and the diameters of ulcers were measured.

[6] = tested on: alcohol induced mucosa injury; experiment: Gastric lesions induced by acidified alcohol in rats; conditions: 40 minutes before ethanol+HCl, n = 10
Protocol: Male Wistar rats weighing 140-160 g were treated p.o. with a 1:0.02 mixture of dry ethanol and concentrated HCl (0.5 ml) in order to induce gastric lesions. One hour later the animals were euthanized with ether and the stomach excised along its greater curvature, the mucosa was examined for the presence of lesions.
Severity of lesions: • 1: petechiae or erosion with length of 1 mm • 2: erosion with length between 2 and 3 mm • 3: erosion with length between 3 and 4 mm • 4: erosion with length between 4 and 5 mm
If the lesion was longer than 5 mm, it was scored 4 point as many times as the total length of the lesion divisible by four and the rest of the length was evaluated according to the above scale. The degree of injury of mucosa was characterized by ulcer index. Ulcer index (severity of lesion×number of lesion) was calculated for every animal and the degree of injury of mucosa in the groups of tested animals was characterized by the mean of ulcer index of different groups of animals.
Test compounds were given p.o. 40 minutes before the ethanol+HCl treatment

[7] = tested on: carrageenan induced paw oedema; experiment: Inhibition of carrageenan induced oedema in rats; conditions: for ED30: p.o.
Protocol: The treated paw was immersed up to the tibio-tarsal articulation into the chamber and the volume of displaced liquid was determined as the degree of the inflammation. Degree of inflammation (ml)=volume after the CARR treatment (ml)−volume before the CARR treatment (ml)
The degree of the anti-inflammatory effect of the treated group (which obtained test agent) was compared to that of the control group (which obtained only vehicle). The test compound and the vehicle were given orally by blunt-ended needle cannula one hour before the CARR treatment. The volume of the treated paw was measured at 3 and 5 hours after the CARR treatment and the change in the degree of inflammation in % was calculated according to the following formula: Anti-inflammatory activity %=100×[control group (ml)−treated group (ml)/control group (ml)]
[…] Anti-inflammatory activity of the compounds was determined in % at 4 and 6 hours after p.o. treatment and ED30 was calculated.

[8] = inflammation induced chronic hyperalgesia model

Cc1ccc(-c2cc(C(F)(F)F)nn2-c2ccc(S(=O)(=O)NOC(C)C(=O)O)cc2)cc1 (racemic) [Example 5, (R,S)-2-[4-(5-p-methylphenyl-3-trifluoromethyl-pyrazol-1-yl)-benzensulfonylamino-oxy]-propionic acid]
occurrence of serious, not mortal ventricular fibrillation during reperfusion [1]: 60% | Analgesic effect (reversal %) after p.o. treatment ([2]; 10 mg/kg p.o., 30 min): 23% | Analgesic effect (reversal %) after p.o. treatment ([2]; 10 mg/kg p.o., 1 hour): 22% | Analgesic effect (reversal %) after p.o. treatment ([2]; 10 mg/kg p.o., 2 hour): 28% | Analgesic effect (reversal %) after p.o. treatment ([2]; 10 mg/kg p.o., 3 hour): 14% | Analgesic effect (reversal %) after p.o. treatment ([2]; 10 mg/kg p.o., 4 hour): 11% | Analgesic effect (reversal %) after p.o. treatment ([2]; 30 mg/kg p.o., 4 hour): 19% | Analgesic effect (reversal %) after p.o. treatment ([3]; 10 mg/kg p.o., 1 hour): 24% | Analgesic effect (reversal %) after p.o. treatment ([3]; 10 mg/kg p.o., 2 hour): 30% | Analgesic effect (reversal %) after p.o. treatment ([3]; 10 mg/kg p.o., 3 hour): 15% | Analgesic effect (reversal %) after p.o. treatment ([3]; 30 mg/kg p.o., 1 hour): 89% | Analgesic effect (reversal %) after p.o. treatment ([3]; 30 mg/kg p.o., 2 hour): 59% | Analgesic effect (reversal %) after p.o. treatment ([3]; 30 mg/kg p.o., 3 hour): 35% | Analgesic effect (reversal %) after p.o. treatment ([4]; 30 min): 42% | Analgesic effect (reversal %) after p.o. treatment ([4]; 1 hour): 54% | Analgesic effect (reversal %) after p.o. treatment ([4]; 2 hour): 34% | Analgesic effect (reversal %) after p.o. treatment ([4]; 3 hour): 19% | analgesic effect [4, 8]: significant analgesic effect (p<0.01) | duration of action compared with the reference compound [4, 8]: several hours longer | Area of ulcer (mm^2) ([5]; 30 mg/kg p.o. for seven days): 2.4 ± 0.7 mm^2 | Change of bodyweight (g) + (increase) − (decrease) ([5]; 30 mg/kg p.o. for seven days): +43 ± 5 g | Recovery of acetic acid induced ulcer ([5]; p.o. for seven days): did not influence it | Ulcer index ([6]; 15 mg/kg p.o.): 43.0 ± 4.4 | Ulcer index ([6]; 30 mg/kg p.o.): 35.0 ± 4.4 | Ulcer index ([6]; 60 mg/kg p.o.): 15.8 ± 2.8 | Inhibiton of carrageenan induced edema % ([7]; 3 mg/kg p.o., 4 hours after treatment): 21 ± 3% | Inhibiton of carrageenan induced edema % ([7]; 3 mg/kg p.o., 6 hours after treatment): 20 ± 3% | Inhibiton of carrageenan induced edema % ([7]; 10 mg/kg p.o., 4 hours after treatment): 40 ± 4% | Inhibiton of carrageenan induced edema % ([7]; 10 mg/kg p.o., 6 hours after treatment): 34 ± 5% | Inhibiton of carrageenan induced edema % ([7]; 30 mg/kg p.o., 4 hours after treatment): 49 ± 5% | Inhibiton of carrageenan induced edema % ([7]; 30 mg/kg p.o., 6 hours after treatment): 40 ± 4% | anti-inflammatory activity compared with celecoxib ([7]; CARR induced oedema test): significantly (p<0.05) higher | ED30 ([7]; 4 hours after treatment): 5.7 mg/kg | ED30 ([7]; 6 hours after treatment): 8.4 mg/kg
